Legend:
[1] = test system: Human lens epithelial cells (HLEC); assay: Viability of human lens epithelial cells subjected to glucose-induced toxicity (Trypan Blue); assay type: cell-based; conditions: 50 mM glucose; 4 mM MSM, 0.5 mM EDTA; 16 hrs; glucose alone decreased viability by 30%
Description: Cell Culture and Treatment. Human lens epithelial […] extended life span were cultured in DMEM medium containing 0.1% gentamicin and supplemented with 20% fetal bovine serum at 37° C. in a 5% CO2-humidified atmosphere. 1.0×10^5 […] (Passage 5) were seeded in 12-well plate overnight prior to the addition of glucose, MSM or MSM/EDTA. The wells were divided into six groups of two wells. Cell viability. Cell survival was determined by Trypan Blue staining and counted with a hemocytometer. Dead cells stain blue, while live cells exclude Trypan Blue. Cell viability is represented as a percentage corresponding to the number of live cells divided by the total cells. […] DMEM+20% FBS+0.1% gentamicin • 400 mM MSM: 376 mg/10 ml PBS for stock • 50 mM EDTA (Tetrasodium Salt): 190 mg/10 ml PBS for stock, pH 7.2 • 5 M Glucose: 1800 mg/10 ml of dd H2O Experimental Procedure. 1. Seeded 0.5×10^5/ml of HLEC (Passage 5) into three 12-well plates, then incubated at 37° C. overnight. 2. Changed medium to 2% FBS DMEM medium. 3. […] They were harvested with 0.25% Trypsin-EDTA and cell viability was determined with Trypan-Blue.

[2] = at 79° F.; cited from earlier work
rat lens organ culture = assay: Glucose-induced toxicity in rat lens organ culture (RLCE); assay type: cell-based; conditions: 50 mM glucose, 4 mM MSM, 0.5 mM EDTA
Description: Animals. Male Sprague-Dawley rats weighing 200-250 g were obtained from Central Animal Care Services at the University of Texas Medical Branch. The NIH guidelines and ARVO statement for the Use of Animals in Ophthalmic and Vision Research were strictly followed for the welfare of the animals. Rats were sacrificed with using 100% carbon dioxide at a low flow rate (25-30% of the volume of the cage per minute) with two rats in a cage. After the rats stopped breathing for about 2 minutes, the eyeballs were removed. […] Experimental Procedure. 1. Sacrificed four rats, removed the eyeballs as soon as possible and put them into a tube containing PBS with 0.1% gentamicin. 2. Dissected the lenses immediately and washed with 1% penicillin/streptomycin in sterile with PBS. 3. Transferred each lens to a well of a 12-well plate (2 ml of medium per well, i.e., per lens). Each treatment was performed in 2 wells. The lenses were cultured in medium 199 containing 0.1% gentamicin at 37° C. in a 5% CO2 humidified atmosphere. Reagents as described above were added to three groups of two wells to give the following three treatments: • 50 mM glucose • 50 mM glucose+4 mM MSM • 50 mM glucose+4 mM MSM+0.5 mM EDTA One group of two wells was left untreated as a control. […] Photographs were taken using a Multidimensional Imaging System, and the level of light transparency through the lenses was determined

CS(C)(=O)=O [MSM, methylsulfonylmethane]
percent cell viability (FIG. 6) [1]: increased the percent cell viability
water solubility [2]: 34 % w/v
lens opacification by glucose (photographs, FIG. 2) (rat lens organ culture; seven days of culture): mitigated lens opacification
light transmission through the lens, relative to the untreated control (FIG. 3) (rat lens organ culture; seven days, glucose alone 45%): 68%
